Measured values published in publication PMC5537346, “Characterisation and pharmacological analysis of a crustacean G protein-coupled receptor: the red pigment-concentrating hormone receptor of Daphnia pulex” (Scientific Reports, 2017).
pEC50: −log10 of the molar value. Entries after “also recorded” stand apart in the source; their conditions may differ. Like-named read-outs stand apart in the source and are kept apart here. Where a SMILES comes first, the peptide text is derived from it. [ ]: non-standard residue; d: D form. pGlu = O=C1CC[C@@H](C(=O)O)N1

Experiments:
[1] = molecular target: T1, Dappu-RPCHR (Daphnia pulex RPCH receptor) (Daphnia pulex, UniProt A0A240FBD5); test: in vitro cell-based bioluminescence (aequorin Ca2+) assay on Dappu-RPCHR expressing CHO-WTA11 cells; conditions: for activation of Dappu-RPCHR (in words): Locmi-ACP statement at 10 µM
T1 sequence (A0A240FBD5 1-451): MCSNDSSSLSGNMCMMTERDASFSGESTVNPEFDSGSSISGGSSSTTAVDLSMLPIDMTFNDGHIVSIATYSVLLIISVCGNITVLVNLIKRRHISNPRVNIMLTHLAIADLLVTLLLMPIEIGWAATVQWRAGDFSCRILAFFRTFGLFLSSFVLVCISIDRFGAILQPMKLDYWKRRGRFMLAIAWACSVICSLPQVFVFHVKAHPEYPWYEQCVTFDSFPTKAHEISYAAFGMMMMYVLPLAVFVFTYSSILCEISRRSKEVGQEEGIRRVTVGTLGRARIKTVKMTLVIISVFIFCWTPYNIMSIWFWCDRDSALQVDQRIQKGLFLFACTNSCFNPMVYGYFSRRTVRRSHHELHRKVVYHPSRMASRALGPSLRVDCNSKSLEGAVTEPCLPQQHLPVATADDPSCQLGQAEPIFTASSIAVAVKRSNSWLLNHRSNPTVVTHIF
Procedure: Pharmacological analyses were performed in Chinese hamster ovary (CHO) WTA11 cells stably co-expressing the bioluminescent protein apoaequorin and the promiscuous Gα16 subunit, which couples most agonist-induced GPCRs to the phospholipase C and Ca^2+ pathway, irrespective of their natural signalling cascade.
CHO-WTA11 cells were cultured in monolayers in Dulbecco’s Modified Eagles Medium nutrient mixture F12-Ham (DMEM/F12) with L-glutamine, 15 mM HEPES, sodium bicarbonate and phenol red (Sigma-Aldrich) supplemented with 100 IU/ml penicillin and 100 µg/ml streptomycin (Gibco), 10% heat-inactivated fetal bovine serum (Gibco) and […] zeocin (Gibco). All cells were maintained in an incubator at 37 °C with a constant supply of 5% CO2.
Transfections with pcDNA3.1-Dappu-RPCHR or empty pcDNA3.1 vector were carried out in T75 flasks at 60–80% confluency. Transfection medium was prepared using the Lipofectamine LTX Kit (Invitrogen) with 2.5 ml Opti-MEM® (Gibco), 12.5 µl PlusTM Reagent and 5 µg vector construct in 5 ml polystyrene round-bottom tubes. After a 5 min incubation period at room temperature, 30 µl LTX was added to the medium. After a further incubation period of 30 min at room temperature, the medium was removed and DNA/LTX mix was added dropwise to the cells followed by 3 ml of fresh complete medium.
Following transfection, cells were incubated overnight (37 °C, 5% CO2), then 10 ml of cell medium was added followed by a second overnight incubation (37 °C, 5% CO2). Ligand-induced changes in intracellular Ca^2+ were then monitored in the cells as described below.
CHO-WTA11 cells transfected with receptor construct (or empty vector) plasmid were detached with PBS, complemented with 0.2% EDTA (pH 8.0), and rinsed off the flask with DMEM/F12 with L-glutamine and 15 mM HEPES (Sigma-Aldrich). The number of viable and nonviable cells was determined using a TC20 automated Cell Counter (BIO-RAD). The cells were pelleted for 5 minutes at 800 rpm and resuspended to a density of 5.10^6 cells/ml in sterile filtered bovine serum albumin (BSA) medium (DMEM/F12 with L-glutamine and 15 mM Hepes, supplemented with 0.1% BSA) and loaded with 5 µM Coelenterazine_h (Invitrogen) for 4 h in the dark, at room temperature, while gently shaking to reconstitute the holo-enzyme aequorin. After a 10-fold dilution, cell solution (50 µl) was delivered to each well in a 96-well plate (~25000 cells/well) and cells were exposed to potential ligands reconstituted in BSA medium and distributed across the plate. In every row, BSA medium alone was placed in one well to serve as the negative control (blank). The Ca^2+ response was recorded for 30 s on a Mithras LB 940 (Berthold Technologies). After 30 s, 0.1% Triton X-100, a non-ionic surfactant, was added to the same well to measure the total cellular Ca^2+ response. The total response (ligand + Triton X-100), which is directly related to the number of cells present in the well, was used to normalise the response. The response of each negative control was subtracted from the luminescence obtained for wells within the same row. Calculations were made using the output file from the Microwin software (Berthold Technologies) in Excel (Microsoft). Further analysis was done in GraphPad Prism 5.

Palaemon pacificus = test system: Palaemon pacificus; set-up: method as in PMID 19686751; conditions: in vivo, shrimp Palaemon pacificus; cited from earlier work
Nezara viridula = test system: Nezara viridula; set-up: method as in PMID 19686751; conditions: in vivo; cited from earlier work
[2] = Table 2, analogues of Dappu-RPCH

CC(C)[C@H](NC(=O)[C@@H]1CCC(=O)N1)C(=O)N[C@@H](CC(N)=O)C(=O)N[C@@H](Cc1ccccc1)C(=O)N[C@@H](CO)C(=O)N[C@H](C(=O)N[C@@H](CO)C(=O)N[C@@H](Cc1c[nH]c2ccccc12)C(N)=O)[C@@H](C)O [Dappu-RPCH, pQVNFSTSWamide] ([pGlu]VNFSTSW-NH2)
pEC50 [1]: 10.19
concentration at which full activity was achieved [1]: 0.1 nM
pEC50 ([1]; Table 1, AKH/RPCH and related peptides, calculated from dose-response curves): 10.19
pEC50 [1, 2]: 10.19
effect on pigment migration in a decapod crustacean (Palaemon pacificus): could not affect pigment migration
biological activity in the green stink bug (Nezara viridula): caused measurable biological activity

CC(C)[C@H](NC(=O)[C@@H]1CCC(=O)N1)C(=O)N[C@@H](CC(N)=O)C(=O)N[C@@H](Cc1ccccc1)C(=O)N[C@@H](CO)C(=O)N[C@H](C(=O)N[C@@H](CO)C(=O)N[C@@H](Cc1c[nH]c2ccccc12)C(=O)O)[C@@H](C)O [[Trp-OH]Dappu-RPCH, pQVNFSTSW-OH] ([pGlu]VNFSTSW-OH)
pEC50 [1, 2]: 7.76
fold lower affinity / potency relative to Dappu-RPCH ([1]; from EC50 values): 270 fold

pQTFQYSRGWTNamide [Dappu-Crz]
activation of Dappu-RPCHR (in words) [1]: did not activate the receptor; also recorded: could not activate the Dappu-RPCHR at all

pQVTFSRDWSPamide [Locmi-ACP]
activation of Dappu-RPCHR (in words) [1]: only slightly active
% of the maximum activation ([1]; peptide concentration of 10 µM): 30%
